Common to all, as to assay type: in vivo
In test [1] the test system is Meloidogyne incognita. Nature of the test: Meloidogyne incognita test. Conditions: 336 h, lettuce, after 14 days, read-out: nematicidal efficacy (formation of galls). Put shortly:
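Active compound in acetone, diluted with water, added to sand-filled vessels with M. incognita eggs/larvae and lettuce seeds. After 14 days, efficacy scored by root gall formation: 100% = no galls, 0% = galls equal to untreated control.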

The test system of test [2] is Myzus persicae. Kind of test: Myzus persicae oral test. As to conditions: 120 h, 20 ppm, oral uptake, after 5 days, read-out: efficacy. Put shortly:
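Compound dissolved in acetone, diluted in water, then mixed 50:150 μl with IPL41 insect medium (33%+15% sugar). Mixed-population green peach aphids feed through a parafilm seal on the solution; mortality scored as % efficacy after 5 days (100% = all killed).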

The test system of test [3] is Myzus persicae. Kind of test: Myzus persicae spray test (Chinese cabbage leaf discs). Conditions: foliar, 120 h, 500 g/ha, after 5-6 days, read-out: efficacy. Put shortly: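 Chinese cabbage leaf discs infested with all stages of green peach aphid were sprayed with compound formulated in acetone/DMF and emulsifier-containing water. Efficacy in % was scored after 5-6 days, with 100% meaning all aphids killed and 0% none killed.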

Turning to `Cn1cc(C(=O)NS(=O)(=O)c2cccc3ccn(C)c23)nc1-c1c(F)cccc1F` [Example 323], the pest or weed control at 20 ppm in test [1] turned out to be 90%; in test [2], 100%. The pest or weed control at 500 g/ha in test [3] stood at 100%.
Regarding `CC(C)S(=O)(=O)NC(=O)c1cn(C)c(-c2ccccc2Cl)n1` [Example 193], the pest or weed control at 20 ppm in test [1] is 90%. Further, the pest or weed control at 500 g/ha in test [3] was determined as 100%.
In the case of `COc1ccc(Cl)c(S(=O)(=O)NC(=O)c2cn(C)c(-c3ccccc3C)n2)c1` [Example 98], the pest or weed control at 20 ppm in test [1] came out at 90%; in test [2], 100%. Also, in test [3], the pest or weed control at 500 g/ha is 90%.
As for `Cn1cc(C(=O)NS(=O)(=O)c2cccc(Cl)c2Cl)nc1-c1ccccc1Cl` [Example 38], the pest or weed control at 20 ppm in test [1] and in test [2] was 100% in each case. Besides, in test [3], the pest or weed control at 500 g/ha is 90%.
Turning to `Cn1cc(C(=O)NS(=O)(=O)c2ccc(C(F)(F)F)cc2Br)nc1-c1c(F)cccc1F` [Example 442], the pest or weed control at 20 ppm in test [1] amounted to 90%. The pest or weed control at 500 g/ha in test [3] worked out at 90%.
On to `Cn1nc(C(=O)NS(=O)(=O)c2ccccc2Cl)nc1-c1ccccc1Cl` [Example 14], for which the pest or weed control at 20 ppm in test [1] stood at 90%; in test [2], 100%. For the same compound, in test [3], the pest or weed control at 500 g/ha came to 90%.
With `Cn1cc(C(=O)NS(=O)(=O)c2ccc(Cl)cc2)nc1-c1c(F)cc(F)cc1F` [Example 9], in test [1], the pest or weed control at 20 ppm worked out at 100%. The pest or weed control at 500 g/ha in test [3] is 90%.
The corresponding values for `CCOc1ccccc1S(=O)(=O)NC(=O)c1cn(C)c(-c2c(F)cccc2F)n1` [Example 16] are 90% and 90%.
The like results for `CC(C)CS(=O)(=O)NC(=O)c1cn(C)c(-c2c(F)cccc2F)n1` [Example 142] were, in that order, 90% and 100%.
With `CC(C)S(=O)(=O)NC(=O)c1nc(-c2ccccc2Cl)n(C)c1Cl` [Example 206], the pest or weed control at 20 ppm worked out at 100% in test [1] and 90% in test [2]. The pest or weed control at 500 g/ha in test [3] turned out to be 100%.
With `Cn1cc(C(=O)NS(=O)(=O)c2ccc(Br)cc2F)nc1-c1c(F)cccc1F` [Example 437], the pest or weed control at 20 ppm in test [1] was determined as 90%; in test [2], 100%. The pest or weed control at 500 g/ha in test [3] worked out at 100%.
Regarding `COc1ccc(C)c(S(=O)(=O)NC(=O)c2cn(C)c(-c3ncccc3F)n2)c1` [Example 593], the pest or weed control at 20 ppm in test [1] is 90%; in test [2] it was 100%. In test [3], the pest or weed control at 500 g/ha was determined as 100%.
On to `CCc1[nH]c(-c2ccc(F)c(F)c2)nc1C(=O)NS(=O)(=O)c1ccccc1C` [Example 207], for which the pest or weed control at 20 ppm in test [1] came out at 90%. Also, in test [3], the pest or weed control at 500 g/ha amounted to 90%.
Take `Cc1cc(C(=O)NS(=O)(=O)c2ccccc2Br)nn1-c1ncccc1Cl` [Example 283]: the values for the pest or weed control at 20 ppm in test [1] and in test [2] were 90% and 100%, respectively. For the same compound, in test [3], the pest or weed control at 500 g/ha was determined as 100%.
Consider `COc1ccc(F)cc1S(=O)(=O)NC(=O)c1cn(C)c(-c2ncccc2F)n1` [Example 596], for which the pest or weed control at 20 ppm in test [1] was 90%; in test [2], 100%. Besides, the pest or weed control at 500 g/ha in test [3] was 100%.
Take `Cc1ccccc1S(=O)(=O)NC(=O)c1cn(C)c(-c2ncccc2F)n1` [Example 500]: the pest or weed control at 20 ppm in test [1] was determined as 90%; in test [2], 100%. The pest or weed control at 500 g/ha in test [3] was 100%.
Regarding `Cc1ccc(S(=O)(=O)NC(=O)c2cn(C)c(-c3c(F)cccc3F)n2)cc1` [Example 175], the pest or weed control at 20 ppm in test [1] was 100%. Also, the pest or weed control at 500 g/ha in test [3] worked out at 90%.
The like results for `CCc1c(C(=O)NS(=O)(=O)c2ccccc2Cl)nc(-c2c(F)cccc2F)n1C` [Example 197] were, in that order, 100% and 90%.
The corresponding values for `Cc1ccccc1S(=O)(=O)NC(=O)c1cn(C)c(-c2c(F)cc(F)cc2F)n1` [Example 6] are 100% and 100%.
As to `CCS(=O)(=O)NC(=O)c1cn(C)c(-c2ccccc2Cl)n1` [Example 64], in test [1], the pest or weed control at 20 ppm came to 90%. Also, in test [3], the pest or weed control at 500 g/ha amounted to 90%.
`Cc1ccccc1S(=O)(=O)NC(=O)c1cc(C)n(-c2c(F)cccc2F)n1` [Example 139]: the pest or weed control at 20 ppm in test [1] was found to be 90%. Further, the pest or weed control at 500 g/ha in test [3] was found to be 90%.
With `Cn1cc(C(=O)NS(=O)(=O)c2cccc(Cl)c2)nc1-c1c(F)cc(F)cc1F` [Example 8], the pest or weed control at 20 ppm in test [1] stood at 100%. Besides, the pest or weed control at 500 g/ha in test [3] was 90%.
The like results for `Cn1cc(C(=O)NS(=O)(=O)c2ccccc2)nc1-c1c(F)cccc1F` [Example 48] were, in that order, 90% and 90%.
The corresponding values for `COc1ccc(S(=O)(=O)NC(=O)c2cn(C)c(-c3c(F)cccc3F)n2)cc1` [Example 47] are 100% and 90%.
Regarding `CCc1cccc(OC)c1S(=O)(=O)NC(=O)c1cn(C)c(-c2c(F)cccc2F)n1` [Example 200], the pest or weed control at 20 ppm in test [1] was determined as 100%. Besides, the pest or weed control at 500 g/ha in test [3] was 100%.
On to `Cn1cc(C(=O)NS(=O)(=O)c2ccc(Cl)cc2)nc1-c1ccccc1Cl` [Example 230], for which the pest or weed control at 20 ppm in test [1] was determined as 100%. For the same compound, the pest or weed control at 500 g/ha in test [3] was found to be 100%.
Turning to `CCc1[nH]c(-c2ccc(F)cc2F)nc1C(=O)NS(=O)(=O)C(C)C` [Example 123], the pest or weed control at 20 ppm in test [1] came out at 90%. In test [3], the pest or weed control at 500 g/ha amounted to 90%.
As to `Cn1cc(C(=O)NS(=O)(=O)c2ccc(C(F)(F)F)cc2Cl)nc1-c1c(F)cccc1F` [Example 441], the pest or weed control at 20 ppm in test [1] came out at 100%. The pest or weed control at 500 g/ha in test [3] was determined as 90%.
The corresponding values for `Cc1ccccc1S(=O)(=O)NC(=O)c1cn(C)c(-c2cccc3c2OC(F)(F)O3)n1` [Example 542] are 100% and 90%.
The corresponding values for `COc1ccccc1S(=O)(=O)NC(=O)c1nc(-c2c(F)cccc2F)c(C)n1C` [Example 310] are 100% and 90%.
As to `COc1ccc(Cl)c(S(=O)(=O)NC(=O)c2cn(C)c(-c3ccccc3Cl)n2)c1` [Example 228], the pest or weed control at 20 ppm in test [1] worked out at 100%. The pest or weed control at 500 g/ha in test [3] is 100%.
`COc1ccc(S(=O)(=O)NC(=O)c2cn(C)c(-c3ccccc3Cl)n2)cc1` [Example 34]: the pest or weed control at 20 ppm in test [1] came to 100%. Besides, the pest or weed control at 500 g/ha in test [3] came to 90%.
For `CCn1cc(C(=O)NS(C)(=O)=O)nc1-c1ccccc1Cl` [Example 79], the pest or weed control at 20 ppm in test [1] amounted to 90%. For the same compound, the pest or weed control at 500 g/ha in test [3] is 100%.
The like results for `COc1cccc(C)c1S(=O)(=O)NC(=O)c1cn(C)c(-c2c(F)cccc2F)n1` [Example 365] were, in that order, 90% and 100%.
The corresponding values for `CCOc1cccc(CC)c1S(=O)(=O)NC(=O)c1cn(C)c(-c2c(F)cccc2F)n1` [Example 335] are 90% and 90%.
As to `Cc1ccccc1S(=O)(=O)NC(=O)c1cn(C)c(-c2cccc(C(C)C)c2)n1` [Example 331], the pest or weed control at 20 ppm in test [1] is 90%; in test [2], 100%.
The like results for `Cn1cc(C(=O)NS(=O)(=O)c2ccccc2Cl)nc1-c1cc(Cl)ccc1Cl` [Example 511] were, in that order, 100% and 100%.
Turning to `Cn1cc(C(=O)NS(=O)(=O)c2cc(Cl)sc2Cl)nc1-c1c(F)cccc1F` [Example 356], in test [1], the pest or weed control at 20 ppm turned out to be 90%. For the same compound, the pest or weed control at 500 g/ha in test [3] is 90%.
Regarding `CCn1c(C(=O)NS(=O)(=O)c2ccccc2OC)nc(-c2c(F)cccc2F)c1C` [Example 416], the pest or weed control at 20 ppm in test [1] and in test [2] was 90% throughout.
`CC(C)S(=O)(=O)NC(=O)c1cn(C)c(-c2c(F)cccc2Cl)n1` [Example 149]: in test [1], the pest or weed control at 20 ppm was found to be 90%. Also, in test [3], the pest or weed control at 500 g/ha stood at 90%.
As for `CCc1c(C(=O)NS(=O)(=O)c2ccccc2C)nc(-c2c(F)cccc2F)n1C` [Example 199], the results for the pest or weed control at 20 ppm in test [1] and in test [2] were 90% and 100%, respectively.
The corresponding values for `Cn1cc(C(=O)NS(=O)(=O)Cc2ccc(Cl)cc2)nc1-c1ccccc1Cl` [Example 63] are 100% and 100%.
The corresponding values for `CCc1[nH]c(-c2cccc(Br)c2)nc1C(=O)NS(=O)(=O)c1ccccc1C` [Example 134] are 90% and 100%.
`Cn1cc(C(=O)NS(=O)(=O)c2ccccc2Cl)nc1-c1ccccc1-c1ccccc1` [Example 532]: the pest or weed control at 20 ppm was 90% in test [1] and 100% in test [2].
On to `Cn1cc(C(=O)NS(=O)(=O)c2cccc(F)c2Cl)nc1-c1c(F)cccc1F` [Example 321], for which the pest or weed control at 20 ppm in test [1] was 90%. The pest or weed control at 500 g/ha in test [3] was found to be 100%.
On to `Cc1ccccc1S(=O)(=O)NC(=O)c1cc(-c2ncccc2Cl)n(-c2ccccc2Cl)n1` [Example 265], for which the pest or weed control at 20 ppm in test [1] and in test [2] was 100% throughout.
Consider `Cn1cc(C(=O)NS(=O)(=O)c2ccsc2)nc1-c1c(F)cccc1F` [Example 357], for which the pest or weed control at 20 ppm in test [1] came to 90%. In addition, in test [3], the pest or weed control at 500 g/ha stood at 90%.

These data come from US20200288710A1, “SUBSTITUTED SULPHONAMIDES FOR CONTROLLING ANIMAL PESTS” (BAYER CROPSCIENCE AKTIENGESELLSCHAFT, priority 2016, published 2020).
